Data: patent US4127687A, “Prevention of fouling of marine structures such as boat hulls” (Rohm and Haas Company, priority 1976, dated 1978)
Values after ≈ are worked out from the molar mass of the structure shown.

Columns and labels:
[1] = Amount of toxicant remaining in the test container after membrane diffusion raft tests; format: physicochemical; set-up: key: 0: empty or trace; +: some; + +: ample; details: after completion of membrane diffusion raft tests
From the text: (§1) A known quantity of the test compound is placed into a cylindrical plastic container whose open end is then covered with a membrane of known porosity; the complete unit is attached to the appropriate raft panel so that the poison can freely diffuse into the free water layer around it. Regular inspections, recording time and quantity of settlement, allow a life history of each membrane trial to be constructed. Each raft panel contains 35 compounds to be evaluated together with 4 standard poisons and 1 non-toxic membrane for control.
(§2) After the completion of membrane tests the contents of all containers are checked visually for poison loss. An empty container indicates an unacceptably high solubility for long term effectiveness; where the poison loss is low the compound is tested in one of two ways depending on its performance against fouling.
^b Amount of toxicants remaining in the test container after the
completion of the membrane diffusion raft tests: 0 = empty or trace, + =

[2] = test system: Enteromorpha spores; assay: Laboratory toxicity test (Lab Bioassay) with Enteromorpha spores; format: in vivo; details: using Enteromorpha spores
From the text: Standard laboratory toxicity tests use Enteromorpha spores (zoospores or gametes) but Ectocarpus spores and barnacle nauplii may also be used. During the spore tests additional information on the control of bacterial and diatom slimes becomes available since these organisms are unavoidably introduced with the spore inoculum.
More detailed laboratory toxicity tests on promising compounds determine LD50 values as percentage saturated solution.
^c Using Enteromorpha spores.

[3] = test system: barnacle; assay: Membrane Diffusion Raft Trials, barnacle control; format: in vivo, barnacles; details: membrane test, average 15 to 16 weeks of immersion
From the text: (§3) 1). FIELD TESTS: - Membrane Diffusion Raft Trials
(§4) A specially constructed raft provides three types
(§5) a). Waterline Well illuminated, aerated
(§6) b). Flats Poorly illuminated deeper
as §1
(§7) The behavior on the raft can thus be compared with that of the standard poisons and the non-toxic control. At normal loading a membrane over the standard poisons would be free from macro-fouling after six months immersion. Compounds showing selective effects against restricted groups of fouling organisms also show up by membrane testing.
as §2
(§8) In the membrane tests, the results of approximately 140 compounds evaluated appear in Table 1. The symbols "0" means no detactable effect, the symbol "+" indicates the compound is active against the given fouling organism, and the symbol "++" means that the compound appears to be effective over at least about a four month period for essentially preventing fouling activity by the given organism. In the Table, "weed" designates a grass-like algal growth common in sea water.
(§9) Membrane Test results are of an average 15 to 16 weeks of immersion,
(§10) ^a 0 = none, + = some, + + = effective.
^f The 1975 Spring settlement of barnacles was very meager and the […]

[4] = test system: weed; assay: Membrane Diffusion Raft Trials, weed control; format: in vivo, grass-like algal growth common in sea water; details: membrane test, average 15 to 16 weeks of immersion
From the text: as §3, §4, §5, §6, §1, §7, §2, §8, §9, §10

[5] = Water solubility by UV spectrophotometric method; format: physicochemical; details: water, saturated solution; Table 1; read-out: Solubility by UV method
Method: The water solubilities of several isothiazolones were determined by UV spectrophotometric measurements of saturated aqueous solution of each compound in comparison with measurement of solutions of carefully prepared known concentration as outlined in the following example.
DETERMINATION OF SOLUBILITY OF 5-CHLORO-2-(4-FLUOROPHENYL)-4-METHYL-3-ISOTHIAZOLONE OF EXAMPLE 115
A sample of 5-chloro-2-(4-fluorophenyl)-4-methyl-3-isothiazolone (0.0406 g., 1.67 × 10^-4 mole) was dissolved in 50 ml. of methanol. A 5 ml. aliquot of the solution was diluted to 1000 ml. with deionized water, providing a solution of 1.67 × 10^-5 moles/liter concentration. An ultraviolet spectrum of this solution was run using a 10 cm. cell. The absorbance (As) at the wave length of maximum absorption (279 nm.) was 1.208. The molar absorptivity, AM, was calculated from the relationship
where b and c are path length or cell thickness and concentration respectively. Thus, AM was [formula]
Another sample of the compound (0.3-0.5 g.) was stirred vigorously in 40 ml. of deionized water for approximately 72 hrs. to give a saturated solution. The mixture was filtered through very fine filter paper (Whatman No. 50) to remove all suspended solid. Small portions of the filtrate were diluted with water by various factors until an approximately mid-scale absorbance was obtained upon running an ultraviolet spectrum. Such an absorbance was obtained at a dilution of 10. The absorbance was 0.975 in a 10 cm. cell. Using the value for AM obtained earlier, in the equation

[6] = test system: weed; assay: Paint panel / plaque tests against weed (Table 2); format: in vivo, grass-like algal growth common in sea water; set-up: key: high performance; medium performance; low performance; poor or unacceptable performance; details: April to November, 1975
From the text: (3) PAINT FORMULATION AND TEST PANEL OR PLAQUE TESTS
In order to evaluate the compound under practical conditions, weighed quantities of promising compounds are ground in standard volumes of a selected range of paint media and brushed out on plaques for marine immersion.
The anti-fouling paint formulations used is exemplified by the following: […]
The most preferred specific compounds were utilized in paints including vinyl chloride-vinyl acetate copolymers, chlorinated rubber, acrylic emulsions, and conventional paints with or without rosin to contain 20% by weight of biocide in the wet film and in some cases (Example 144 and Example 145) with concentrations of 5, 10, and 15% based on the wet film. Each of the compounds is also described in the membrane tests noted above. The paints were applied at normal thicknesses to plaques or panels of 10 centimeters by 10 centimeters which were immersed in various positions as described for the raft noted above. The compounds and results, as against weed, in the season April to November, 1975, are as follows: […]

Row | Compound | Contents at the end of test (amount of toxicants remaining in the test container) [1] | Lab Bioassay LD50 [2] | Barnacle Control [3] | Weed Control [4] | solubility [5] | Effectiveness in paint CONV (conventional anti-fouling formulation) [6] | Effectiveness in paint CR (chlorinated rubber) [6] | Effectiveness in paint CR/R (chlorinated rubber/rosin) [6] | Effectiveness in paint EM (acrylic emulsion) [6] | Effectiveness in paint V (polyvinyl chloride-acetate) [6] | Effectiveness in paint V/R (vinyl/rosin) [6]
1 | CCCCCCCCCCCCCCn1sccc1=O [Example 7] | + + | 0.1 percentage saturated solution | 0 | 0 |  |  |  |  |  |  | 
2 | O=c1ccsn1Cc1ccccc1 [Example 10] | 0 |  | 0 | 0 | 3000 µg/mL (≈ 15700 µM) |  |  |  |  |  | 
3 | O=c1ccsn1-c1ccc(Cl)cc1 [Example 12] | + |  | + | + | 180 µg/mL (≈ 850 µM) |  |  |  |  |  | 
4 | CCCCCCn1sc(Cl)cc1=O [Example 15] | 0 |  | 0 | 0 | 900 µg/mL (≈ 4100 µM) |  |  |  |  |  | 
5 | CCCCCCCCCCCCCCCCCCn1sc(Cl)cc1=O [Example 26] | + + | 1.0 percentage saturated solution | 0 | 0 |  |  |  |  |  |  | 
6 | O=c1cc(Cl)sn1C1CCCCC1 [Example 27] | + |  | + | 0 | 217 µg/mL (≈ 997 µM) |  |  |  |  |  | 
7 | O=c1cc(Cl)sn1CCc1ccccc1 [Example 29] | 0 |  | 0 | + + | 240 µg/mL (≈ 1000 µM) |  |  |  |  |  | 
8 | O=c1cc(Cl)sn1-c1ccccc1 [Example 33] | + |  | + | + + | 180 µg/mL (≈ 850 µM) |  |  |  |  |  | 
9 | O=c1cc(Cl)sn1-c1ccc(Br)cc1 [Example 35] | + + | 0.22 percentage saturated solution | 0 | + + |  |  |  |  |  |  | 
10 | O=c1cc(Cl)sn1-c1ccc(I)cc1 [Example 36] | + + | 0.08 percentage saturated solution | 0 | + + |  |  |  |  |  |  | 
11 | CCCCCCCCn1scc(Br)c1=O [Example 48] | + |  | 0 | 0 | 45 µg/mL (≈ 154 µM) |  |  |  |  |  | 
12 | CCCCCCCCCCCCn1sc(Cl)c(Cl)c1=O [Example 64] | + + |  | + | 0 | 0.1 to 3 µg/mL (≈ 0.296 to 8.87 µM) |  |  |  |  |  | 
13 | CCCCCCCCCCCCCCn1sc(Cl)c(Cl)c1=O [Example 65] | + + |  | 0 | 0 | 0.9 µg/mL (≈ 2.46 µM) |  |  |  |  |  | 
14 | CCCCCCCCCCCCCCCCn1sc(Cl)c(Cl)c1=O [Example 66] | + + |  | 0 | 0 | 0.5 µg/mL (≈ 1.27 µM) |  |  |  |  |  | 
15 | CCCCn1sc(Cl)c(Br)c1=O [Example 86] | 0 |  | 0 | + + | 1170 µg/mL (≈ 4320 µM) |  |  |  |  |  | 
16 | CCCCCCn1sc(Cl)c(Br)c1=O [Example 87] | 0 |  | + + | + + | 85 µg/mL (≈ 285 µM) |  |  |  |  |  | 
17 | CCCCCCCCn1sc(Br)c(Br)c1=O [Example 95] | 0 |  | 0 | + + | 1.7 µg/mL (≈ 4.58 µM) |  |  |  |  |  | 
18 | CCCCCCCCn1sc(Cl)c(C)c1=O [Example 101] | 0 |  | + + | + + | 38 µg/mL (≈ 145 µM) |  |  |  |  |  | 
19 | Cc1c(Cl)sn(C2CCCCC2)c1=O [Example 107] | + |  | + | 0 | 350 µg/mL (≈ 1510 µM) |  |  |  |  |  | 
20 | Cc1c(Cl)sn(Cc2ccccc2)c1=O [Example 109] | 0 |  | + | + + | 100 µg/mL (≈ 417 µM) |  |  |  |  |  | 
21 | Cc1c(Cl)sn(Cc2ccc(Cl)cc2)c1=O [Example 110] | + + |  | + | + | 34 µg/mL (≈ 124 µM) |  |  |  |  |  | 
22 | Cc1c(Cl)sn(-c2ccccc2)c1=O [Example 111] | + |  | + | + + | 200 µg/mL (≈ 886 µM) |  |  |  |  |  | 
23 | CCCCc1ccc(-n2sc(Cl)c(C)c2=O)cc1 [Example 121] |  | 0.13 percentage saturated solution | + + | + + |  |  |  |  |  |  | 
24 | Cc1c(Cl)sn(-c2ccc(Cl)c(Cl)c2)c1=O [Example 134] | + + |  | 0 | 0 | 3.5 µg/mL (≈ 11.9 µM) |  |  |  |  |  | 
25 | O=c1c(Cl)c(Cl)sn1CCc1ccccc1 [Example 146] |  |  |  |  |  | h | h | h | p | h | h
26 | Cc1c(Cl)sn(-c2ccc(Cl)cc2)c1=O [Example 147] |  |  |  |  |  | p | h | h | m | h | h
27 | O=c1c(Cl)c(Cl)sn1Cc1ccccc1 [Example 148] |  |  |  |  |  | p | h | h | p | h | h
28 | O=c1c(Cl)c(Cl)sn1Cc1ccc(Cl)cc1 [Example 149] |  |  |  |  |  | h |  | h | h | l | h
29 | O=c1c(Cl)c(Cl)sn1-c1ccccc1 [Example 150] |  |  |  |  |  | p | p | h | p | m | h
